Measurements published in patent US20250381254A1, “Augmented Acid Alpha-Glucosidase For The Treatment Of Pompe Disease” (Amicus Therapeutics, Inc., priority 2015, published 2025).
Read-outs that look alike come from different tables or passages of the source.

Tests used:
[1] = Model-derived miglustat/ATB200 steady state exposure (AUC) ratio; design: species or system mouse; details: 10 mg/kg miglustat co-administered with 20 mg/kg ATB200
Source text: Pharmacokinetic models (Example 8) are used to predict exposure to acid α-glucosidase and miglustat, time-matched to the values for tissue lysosomal glycogen levels in Table 5.

in vivo = details: both, Cambodian origin, cynomolgus monkey, in vivo
Experimental: Animals were acclimated to the study room for 18 (females) to 19 (males) days. On the final day of acclimation, animals weighed between 2.243 kg and 5.413 kg and were 2 to 3 years of age.
ATB200 is formulated in 25 mM sodium phosphate buffer, pH 6 containing 2.92 mg/mL sodium chloride, 20 mg/mL mannitol, and 0.5 mg/mL polysorbate 80 (formulation buffer). Test article (ATB200 or miglustat) and control article/vehicle (formulation buffer) were administered once every other week for 13 weeks, starting on Day 1 and ending on Day 85. ATB200 and the control article/vehicle were administered by 2 hour (±10 minute) intravenous (IV) infusion at 0 mg/kg (Group 1, control article), 50 mg/kg (Group 2), or 100 mg/kg (Groups 3 and 5). Miglustat was administered nasogastrically in sterile water for injection, USP, at 25 mg/kg (Group 2) or 175 mg/kg (Groups 3 and 4), 30 minutes (±2 minutes) prior to the start of the infusion for ATB200, when given in combination. The dosing volume across all groups was 10 mL/kg.
Parameters assessed during the in-life phase of the study included body weights, food consumption, clinical observations, detailed clinical observations, physical examinations, electrocardiography, ophthalmic assessments, clinical pathology (hematology, coagulation, serum chemistry), anti-drug antibody (ADA) assessment, neutralizing ADA assessment, urinalysis, and plasma toxicokinetics (TK) for miglustat and ATB200 activity and total protein. Terminal necropsy of animals was performed on Day 99 (14 days after the last dose administration). At necropsy, gross observations and organ weights were recorded, and tissues were collected for microscopic examination.

[2] = Clinical study: plasma miglustat PK; assay type: in vivo, human; details: for AUC0-∞/BW (geometric mean) / CL/F (arithmetic mean) / Cmax/BW (geometric mean) / βt1/2 (arithmetic mean) / AUC(0-t) / AUC(0-inf) / Cmax / Vd/F / Tmax: with 20 mg/kg ATB200; for AUC(0-t) / AUC(0-inf) / Cmax / Vd/F / Tmax: human, plasma, 20 mg/kg; for AUC(0-t): read-out: AUC0-t (geometric mean); for AUC(0-inf): read-out: AUC0-∞ (geometric mean); for Cmax: read-out: Cmax (geometric mean); for Vd/F: read-out: Vz/F (arithmetic mean); for Tmax: read-out: tmax (median)
Source text: The study will be conducted in 2 stages.
• Safety: review of AEs, including SAEs and IARs; review of concomitant medications and nondrug therapies; vital signs (HR, RR, BP, and temperature); weight; PE; ECG; clinical safety laboratory assessments (serum chemistry, hematology, and urinalysis); and urine pregnancy test • PD: urinary Hex4 and serum CPK • Immunological: blood samples for anti-recombinant acid α-glucosidase antibody titers (anti-recombinant acid α-glucosidase total and neutralizing antibody titers, and antibody cross-reactivity with alglucosidase alfa) and blood samples for measurement of pro-inflammatory cytokines and other biomarkers of immune system activation. If needed, IgE measurements will also be performed. • Serial 24-hour PK: During Period 4 (Visit 6, Day 43 and Visit 8, Day 71) and Period 5 (Visit 9, Day 85 and Visit 11, Day 113), blood sampling for plasma acid α-glucosidase activity levels, total acid α-glucosidase protein concentrations, and miglustat concentrations will be taken for all subjects.
In Tables 12-15 and FIGS. 24-26, the single dose (SD) measurements were taken after a single administration of miglustat and ATB200, and the multiple dose (MD) measurements were taken after the third biweekly administration of miglustat and ATB200.

Miglustat toxicokinetics = assay type: in vivo, cynomolgus monkey; details: for AUC(0-t) / Cmax / half-life / Tmax / Vd/F: cynomolgus monkey, plasma; for Vd/F: read-out: Vz/F
Experimental: Analysis of miglustat concentration was carried out using a LC-MS/MS method analogous to that described for analysis of duvoglustat concentration by Richie Khanna, Allan C. Powe Jr., Yi Lun, Rebecca Soska, Jessie Feng, Rohini Dhulipala, Michelle Frascella, Anadina Garcia, Lee J. Pellegrino, Su Xu, Nastry Brignol, Matthew J. Toth, Hung V. Do, David J. Lockhart, Brandon A. Wustman, Kenneth J. Valenzano. […] Miglustat TK parameters were estimated by the log-linear trapezoidal rule.

[3] = Previous studies in non-human primates (exposure); details: in vivo, po, 175 mg/kg
[4] = 130 mg miglustat, multiple dose
[5] = oral, 130 mg miglustat, multiple dose
[6] = oral, 130 mg miglustat, single dose
[7] = oral, 260 mg miglustat, single dose
[8] = Cambodian origin, po, 175 mg/kg, Day 85, 100 mg/kg ATB200 + 175 mg/kg miglustat
[9] = Cambodian origin, po, 175 mg/kg, Day 85, 175 mg/kg miglustat monotherapy
[10] = po, 25 mg/kg, Day 1, 50 mg/kg ATB200 + 25 mg/kg miglustat
[11] = po, 25 mg/kg, Day 85, 50 mg/kg ATB200 + 25 mg/kg miglustat
[12] = po, 175 mg/kg, Day 1, 100 mg/kg ATB200 + 175 mg/kg miglustat
[13] = po, 175 mg/kg, Day 1, 175 mg/kg miglustat monotherapy
[14] = po, 175 mg/kg, Day 85, 100 mg/kg ATB200 + 175 mg/kg miglustat
[15] = po, 175 mg/kg, Day 85, 175 mg/kg miglustat monotherapy

## CCCCN1C[C@H](O)[C@@H](O)[C@H](O)[C@H]1CO [miglustat, (2R,3R,4R,5S)-1-butyl-2-(hydroxymethyl)piperidine-3,4,5-triol]
[1]
  miglustat/ATB200 AUC ratio: 0.01159
In vivo
  NOAEL at 13 weeks: 175 mg/kg
[2]; 130 mg and 260 mg
  dose proportionality of kinetics: dose-proportional kinetics
[2]; [4]
  AUC0-∞/BW (geometric mean): 142 ng·h/mL/kg
  CL/F (arithmetic mean): 10.8 L/h
  Cmax/BW (geometric mean): 16.3 ng/mL/kg
  βt1/2 (arithmetic mean): 5.6 h
[2]; 130 mg miglustat, single dose
  AUC0-∞/BW (geometric mean): 154 ng·h/mL/kg
  CL/F (arithmetic mean): 9.93 L/h
  Cmax/BW (geometric mean): 19.2 ng/mL/kg
  βt1/2 (arithmetic mean): 4.5 h
[2]; 260 mg miglustat, single dose
  AUC0-∞/BW (geometric mean): 325 ng·h/mL/kg
  CL/F (arithmetic mean): 9.51 L/h
  Cmax/BW (geometric mean): 41.5 ng/mL/kg
  βt1/2 (arithmetic mean): 5.5 h
[2]; [5]
  AUC(0-t): 11500 ng·h/mL
  AUC(0-inf): 12200 ng·h/mL
  Cmax: 1390 ng/mL
  Vd/F: 88.1 L
  Tmax: 3 h
[2]; [6]
  AUC(0-t): 12600 ng·h/mL
  AUC(0-inf): 13200 ng·h/mL
  Cmax: 1650 ng/mL
  Vd/F: 65.4 L
  Tmax: 2.75 h
[2]; [7]
  AUC(0-t): 26600 ng·h/mL
  AUC(0-inf): 28000 ng·h/mL
  Cmax: 3550 ng/mL
  Vd/F: 79.2 L
  Tmax: 2.75 h
[2]; oral, 1 hour prior to ATB200 infusion
  time of peak plasma concentrations into the ATB200 infusion: 2 h
Miglustat toxicokinetics; [8]
  AUC(0-t): 216000 ng·h/mL
  Cmax: 22000 ng/mL
Miglustat toxicokinetics; [9]
  AUC(0-t): 204000 ng·h/mL
  Cmax: 14700 ng/mL
Miglustat toxicokinetics; Day 1, 50 mg/kg ATB200 + 25 mg/kg miglustat
  CLT/F: 1.92 L/h
Miglustat toxicokinetics; Day 1, 100 mg/kg ATB200 + 175 mg/kg miglustat
  CLT/F: 3.22 L/h
Miglustat toxicokinetics; Day 1, 175 mg/kg miglustat monotherapy
  CLT/F: 3.67 L/h
Miglustat toxicokinetics; Day 85, 50 mg/kg ATB200 + 25 mg/kg miglustat
  CLT/F: 1.99 L/h
Miglustat toxicokinetics; Day 85, 100 mg/kg ATB200 + 175 mg/kg miglustat
  CLT/F: 3.62 L/h
Miglustat toxicokinetics; Day 85, 175 mg/kg miglustat monotherapy
  CLT/F: 3.49 L/h
Miglustat toxicokinetics; both sexes, oral, males and females combined, Days 1 and 85, across groups, read-out: mean t1/2
  half-life: 6.66 to 8.23 h
Miglustat toxicokinetics; oral, postdose, across groups and days
  Tmax: 2 to 4 h
Miglustat toxicokinetics; [10]
  AUC(0-t): 47300 ng·h/mL
  Cmax: 7430 ng/mL
  Tmax: 2.06 h
  Vd/F: 20.5 L
Miglustat toxicokinetics; po, 25 mg/kg, Day 1, 50 mg/kg ATB200 + 25 mg/kg miglustat, read-out: t1/2 (converted)
  half-life: 7.44 h
Miglustat toxicokinetics; [11]
  AUC(0-t): 49100 ng·h/mL
  Cmax: 7510 ng/mL
  Tmax: 2.88 h
  Vd/F: 23.3 L
Miglustat toxicokinetics; po, 25 mg/kg, Day 85, 50 mg/kg ATB200 + 25 mg/kg miglustat, read-out: t1/2 (converted)
  half-life: 8.23 h
Miglustat toxicokinetics; [12]
  AUC(0-t): 182000 ng·h/mL
  Cmax: 20400 ng/mL
  Tmax: 2.69 h
  Vd/F: 32.3 L
Miglustat toxicokinetics; po, 175 mg/kg, Day 1, 100 mg/kg ATB200 + 175 mg/kg miglustat, read-out: t1/2 (converted)
  half-life: 6.85 h
Miglustat toxicokinetics; [13]
  AUC(0-t): 173000 ng·h/mL
  Cmax: 16400 ng/mL
  Vd/F: 35.9 L
Miglustat toxicokinetics; po, 175 mg/kg, Day 1, 175 mg/kg miglustat monotherapy, read-out: t1/2 (converted)
  half-life: 6.86 h
Miglustat toxicokinetics; [14]
  Tmax: 3.56 h
  Vd/F: 39.1 L
Miglustat toxicokinetics; po, 175 mg/kg, Day 85, 100 mg/kg ATB200 + 175 mg/kg miglustat, read-out: t1/2 (converted)
  half-life: 7.86 h
Miglustat toxicokinetics; [15]
  Tmax: 4.13 h
  Vd/F: 33.8 L
Miglustat toxicokinetics; po, 175 mg/kg, Day 85, 175 mg/kg miglustat monotherapy, read-out: t1/2 (converted)
  half-life: 6.66 h
[3]
  AUC: 196000 ng·h/mL
